Results published in article PMC10999085, “Synthesis, anticancer evaluation, molecular docking and ADME study of novel pyrido[4ʹ,3ʹ:3,4]pyrazolo[1,5-a]pyrimidines as potential tropomyosin receptor kinase A (TrKA) inhibitors” (BMC Chemistry, 2024).
Values after ≈ are worked out from the molar mass of the structure shown. Blank lines part the entries; values can stand above or below the compound they belong to.

Columns and labels:
[1] = system: MCF7 cell line; assay: MTT assay, MCF7 cell line; assay type: cell-based, human; details: 24 hr treatment, in % (unit assumed); for Cytotoxicity at 5 µg/l: MCF7, 5 µg/l; for Cytotoxicity at 10 µg/l: MCF7, 10 µg/l; for Cytotoxicity at 20 µg/l: MCF7, 20 µg/l
Procedure: (§1) Determination of the inhibitory effects of compounds on cell growth was performed through the MTT assay. This colorimetric assay is based on the conversion of the yellow tetrazolium bromide (MTT) to a purple formazan derivative by mitochondrial succinate dehydrogenase in viable cells. The protocol was discussed in details in Additional file 1.
(§2) Compounds 1, 4a,b, 7a–c, 7k, l, 9a–c, 14a, 15b, 16a–c were selected to be investigated against three human cancer cell lines MCF7, HepG2 and HCT116 cell lines using MTT assay using doxorubicin as the standard drug. Each point is the mean ± SD (standard deviation) of three independent experiments performed in triplicate, using the prism software program (integrated Graphpad software, version 3).
(§3) Cell lines were used to measure the cell growth effects of the compounds using the MTT assay. This colorimetric assay is depend on the conversion of the yellow tetrazolium bromide (MTT) to a purple formazan derivative by mitochondrial succinate dehydrogenase in living cells. Cell lines were cultured in RPMI-1640 medium supplemented with 10% fetal bovine serum. The antibiotics added were 100 units/ml penicillin and 100 µg/ml streptomycin at 37 °C in a 5% CO2 incubator. Cell lines were seeded in a 96-well plates at a density of 1.0x10^4 cells/well and cultured at 37 °C for 48 h under 5% CO2. After incubation, the cells were treated with different concentrations of compounds and incubated for 24 hr. After 24 hr of drug treatment, 20 µl of MTT solution at 5 mg/ml was added to each well and incubated for 4 hr. 100 µl of dimethyl sulfoxide (DMSO) was added into each well to dissolve the purple formazan formed. The colorimetric assay was measured and recorded at absorbance of 570 nm using a plate reader (EXL 800, USA). Relative cell viability (%) was calculated as (A570 of treated sample/A570 of untreated sample) x 100 [36, 37].

[2] = system: HepG2 cell line; assay: MTT assay, HepG2 cell line; assay type: cell-based, human; details: for Cytotoxicity at 5 µg/l: HepG2, 5 µg/l; for Cytotoxicity at 5 µg/l / Cytotoxicity at 10 µg/l / Cytotoxicity at 20 µg/l: MTT, 24 hr treatment, in % (unit assumed); for Cytotoxicity at 10 µg/l: HepG2, 10 µg/l; for Cytotoxicity at 20 µg/l: HepG2, 20 µg/l
Procedure: as §1, §2, §3

[3] = system: HCT-116 cell line; assay: MTT assay, HCT-116 cell line; assay type: cell-based, human; details: for Cytotoxicity at 5 µg/l: HCT116, 5 µg/l; for Cytotoxicity at 5 µg/l / Cytotoxicity at 10 µg/l / Cytotoxicity at 20 µg/l: MTT, 24 hr treatment, in % (unit assumed); for Cytotoxicity at 10 µg/l: HCT116, 10 µg/l; for Cytotoxicity at 20 µg/l: HCT116, 20 µg/l
Procedure: as §1, §2, §3

melting point: 275 °C
SMILES: COc1ccc(OC)c(C=C2C(=O)NC(=O)c3c2nn2c(-c4ccccc4)cc(-c4ccccc4)nc32)c1 [Compound 7o, 7-(2,5-Dimethoxybenzylidene)-2,4-diphenylpyrido[4ʹ,3ʹ:3,4]pyrazolo[1,5-a]pyrimidine-8,10(7H,9H)-dione]

melting point: 315 °C
SMILES: COc1cc(C=C2C(=O)NC(=O)c3c2nn2c(-c4ccccc4)cc(-c4ccccc4)nc32)cc(OC)c1OC [Compound 7p, 2,4-Diphenyl-7-(3,4,5-trimethoxybenzylidene)pyrido[4ʹ,3ʹ:3,4]pyrazolo[1,5-a]-pyrimidine-8,10(7H,9H)-dione]

melting point: 335 °C
SMILES: O=C1NC(=O)c2c(nn3c(-c4ccccc4)cc(-c4ccccc4)nc23)C1=Cc1ccc2c(c1)OCO2 [Compound 7q, 7-(Benzo[d][1,3]dioxol-5-ylmethylene)-2,4-diphenylpyrido[4ʹ,3ʹ:3,4]pyrazolo[1,5-a]-pyrimidine-8,10(7H,9H)-dione]

IC50 ([2]; Homo sapiens, HepG2, MTT, read-out: IC50 (drug concentration that inhibited 50% of cell proliferation)): 4.75 ng/mL (≈ 8.74 nM)
IC50 ([3]; Homo sapiens, HCT-116, HCT116, MTT, read-out: IC50 (drug concentration that inhibited 50% of cell proliferation)): 3.64 ng/mL (≈ 6.7 nM)
SMILES: COc1cccc2c1C(=O)c1c(O)c3c(c(O)c1C2=O)C[C@@](O)(C(=O)CO)C[C@@H]3O[C@H]1C[C@H](N)[C@H](O)[C@H](C)O1 [Doxo, Doxorubicin, reference compound]
Cytotoxicity at 5 µg/l [1]: 75.43
Cytotoxicity at 10 µg/l [1]: 89.14
Cytotoxicity at 20 µg/l [1]: 98.19
Cytotoxicity at 5 µg/l [2]: 53.46
Cytotoxicity at 10 µg/l [2]: 68.59
Cytotoxicity at 20 µg/l [2]: 91.13
Cytotoxicity at 5 µg/l [3]: 62.14
Cytotoxicity at 10 µg/l [3]: 77.18
Cytotoxicity at 20 µg/l [3]: 95.26

The next lines start with the compound.

SMILES: Nc1n[nH]c2c1C(=O)NC(=O)C2 [Compound 1, 3-amino-1,7-dihydro-4H-pyrazolo[4,3-c]pyridine-4,6(5H)-dione]
Cytotoxicity at 5 µg/l [1]: 31.71
Cytotoxicity at 10 µg/l [1]: 61.39
Cytotoxicity at 20 µg/l [1]: 73.65
Cytotoxicity at 5 µg/l [2]: 43.17
Cytotoxicity at 10 µg/l [2]: 53.18
Cytotoxicity at 20 µg/l [2]: 65.34
Cytotoxicity at 5 µg/l [3]: 16.23
Cytotoxicity at 10 µg/l [3]: 52.09
Cytotoxicity at 20 µg/l [3]: 71.08

SMILES: Cc1cc(C)n2nc3c(c2n1)C(=O)NC(=O)C3=Cc1ccccc1O [Compound 7d, 7-(2-Hydroxybenzylidene)-2,4-dimethylpyrido[4ʹ,3ʹ:3,4]pyrazolo[1,5-a]pyrimidine-8,10(7H,9H)-dione]
melting point: > 360 °C

SMILES: COc1cc(C=C2C(=O)NC(=O)c3c2nn2c(C)cc(C)nc32)cc(OC)c1OC [Compound 7f, 2,4-Dimethyl-7-(3,4,5-trimethoxybenzylidene)pyrido[4ʹ,3ʹ:3,4]pyrazolo[1,5-a]pyrimidine-8,10(7H,9H)-dione]
melting point: 240 °C

SMILES: Cc1cc(C)n2nc3c(c2n1)C(=O)NC(=O)C3=Cc1ccc2c(c1)OCO2 [Compound 7g, 7-(Benzo[d][1,3]dioxol-5-ylmethylene)-2,4-dimethylpyrido[4ʹ,3ʹ:3,4]pyrazolo[1,5-a]-pyrimidine-8,10(7H,9H)-dione]
melting point: 300 °C

SMILES: Cc1cc(C)n2nc3c(c2n1)C(=O)NC(=O)C3=Cc1cccs1 [Compound 7i, 2,4-Dimethyl-7-(thiophen-2-ylmethylene)pyrido[4ʹ,3ʹ:3,4]pyrazolo[1,5-a]pyrimidine-8,10(7H,9H)-dione]
melting point: 290 °C

SMILES: Cc1cc(C)n2nc3c(c2n1)C(=O)NC(=O)C3=Cc1ccncc1 [Compound 7j, 2,4-Dimethyl-7-(pyridin-4-ylmethylene)pyrido[4ʹ,3ʹ:3,4]pyrazolo[1,5-a]pyrimidine-8,10(7H,9H)-dione]
melting point: 270 °C

SMILES: O=C1NC(=O)c2c(nn3c(-c4ccccc4)cc(-c4ccccc4)nc23)C1=Cc1ccc(Cl)cc1 [Compound 7m, 7-(4-Chlorobenzylidene)-2,4-diphenylpyrido[4ʹ,3ʹ:3,4]pyrazolo[1,5-a]pyrimidine-8,10(7H,9H)-dione]
melting point: 320 °C

SMILES: O=C1NC(=O)c2c(nn3c(-c4ccccc4)cc(-c4ccccc4)nc23)C1=Cc1ccccc1O [Compound 7n, 7-(2-Hydroxybenzylidene)-2,4-diphenylpyrido[4ʹ,3ʹ:3,4]pyrazolo[1,5-a]pyrimidine-8,10(7H,9H)-dione]
melting point: 275 °C
